# Measurements as given in patent US12180187B2, “1-phenyl-5-azinylpyrazolyl-3-oxyalkyl acids and their use for controlling unwanted plant growth” (BAYER AKTIENGESELLSCHAFT, priority 2019, dated 2024).
# Values joined by “and” are separate entries in the source; they are usually repeats but may differ in a detail not shown here. Identical values can stand only once.
# What was measured:
# ALOMY [1] = assay: Pre-emergence action against ALOMY, 1280 g/ha; format: in vivo, Alopecurus myosuroides; conditions: visual scoring after about 3 weeks vs untreated controls, 100% = plants have died, 0% = like control plants
# Outline: (§1)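 Pre-emergence pot test: seeds in sandy loam, soil-covered, sprayed on soil surface (WP/EC, 0.5% additive, 600 L/ha water); greenhouse ~3 wk; visual % effect vs untreated, 0–100%.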
# DIGSA [2] = assay: Pre-emergence action against DIGSA, 1280 g/ha; format: in vivo, Digitaria sanguinalis; conditions: visual scoring after about 3 weeks vs untreated controls, 100% = plants have died, 0% = like control plants
# Outline: as §1
# ECHCG [3] = assay: Pre-emergence action against ECHCG, 1280 g/ha; format: in vivo, Echinochloa crus-galli; conditions: visual scoring after about 3 weeks vs untreated controls, 100% = plants have died, 0% = like control plants
# Outline: as §1
# LOLRI [4] = assay: Pre-emergence action against LOLRI, 1280 g/ha; format: in vivo, Lolium rigidum; conditions: visual scoring after about 3 weeks vs untreated controls, 100% = plants have died, 0% = like control plants
# Outline: as §1
# POAAN [5] = assay: Pre-emergence action against POAAN, 1280 g/ha; format: in vivo, Poa annua; conditions: visual scoring after about 3 weeks vs untreated controls, 100% = plants have died, 0% = like control plants
# Outline: as §1
# SETVI [6] = assay: Pre-emergence action against SETVI, 1280 g/ha; format: in vivo, Setaria viridis; conditions: visual scoring after about 3 weeks vs untreated controls, 100% = plants have died, 0% = like control plants
# Outline: as §1
# ABUTH [7] = assay: Pre-emergence action against ABUTH, 1280 g/ha; format: in vivo, Abutilon theophrasti; conditions: scored visually after about 3 weeks vs untreated controls (100% = plants have died)
# Outline: as §1
# AMARE [8] = assay: Pre-emergence action against AMARE, 1280 g/ha; format: in vivo, Amaranthus retroflexus; conditions: scored visually after about 3 weeks vs untreated controls (100% = plants have died)
# Outline: as §1
# KCHSC [9] = assay: Pre-emergence action against KCHSC, 1280 g/ha; format: in vivo, Bassia scoparia; conditions: scored visually after about 3 weeks vs untreated controls (100% = plants have died)
# Outline: as §1
# MATIN [10] = assay: Pre-emergence action against MATIN, 1280 g/ha; format: in vivo, Tripleurospermum inodorum (Matricaria inodora); conditions: scored visually after about 3 weeks vs untreated controls (100% = plants have died)
# Outline: as §1
# STEME [11] = assay: Pre-emergence action against STEME, 1280 g/ha; format: in vivo, Stellaria media; conditions: scored visually after about 3 weeks vs untreated controls (100% = plants have died)
# Outline: as §1
# VERPE [12] = assay: Pre-emergence action against VERPE, 1280 g/ha; format: in vivo, Veronica persica; conditions: scored visually after about 3 weeks vs untreated controls (100% = plants have died)
# Outline: as §1
# ALOMY [13] = assay: Pre-emergence action at 320 g/ha against ALOMY; format: in vivo, Alopecurus myosuroides; conditions: scored visually after about 3 weeks vs untreated controls (100% = plants have died)
# Outline: (§2)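 Visual % scoring at about 3 weeks post-treatment against untreated pots (0% = like control, 100% = dead), greenhouse-grown. Compounds applied at 320 g/ha as aqueous WP/EC suspension or emulsion plus 0.5% additive, 600 l/ha water, onto covering soil of freshly sown pots before emergence.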
# AVEFA = assay: Pre-emergence action at 320 g/ha against AVEFA; format: in vivo; conditions: visual scoring after about 3 weeks vs untreated controls
# Outline: as §2
# DIGSA [14] = assay: Pre-emergence action at 320 g/ha against DIGSA; format: in vivo, Digitaria sanguinalis; conditions: visual scoring after about 3 weeks vs untreated controls
# Outline: as §2
# ECHGC = assay: Pre-emergence action at 320 g/ha against ECHGC; format: in vivo, Echinochloa crus-galli; conditions: visual scoring after about 3 weeks vs untreated controls
# Outline: as §2
# LOLRI [15] = assay: Pre-emergence action at 320 g/ha against LOLRI; format: in vivo, Lolium rigidum; conditions: visual scoring after about 3 weeks vs untreated controls
# Outline: as §2
# SETVI [16] = assay: Pre-emergence action at 320 g/ha against SETVI; format: in vivo, Setaria viridis; conditions: visual scoring after about 3 weeks vs untreated controls
# Outline: as §2
# AMARE [17] = assay: Pre-emergence action at 320 g/ha against AMARE; format: in vivo, Amaranthus retroflexus; conditions: visual scoring after about 3 weeks vs untreated controls
# Outline: as §2
# MATIN [18] = assay: Pre-emergence action at 320 g/ha against MATIN; format: in vivo, Tripleurospermum inodorum (Matricaria inodora); conditions: visual scoring after about 3 weeks vs untreated controls
# Outline: as §2
# PHBPU = assay: Pre-emergence action at 320 g/ha against PHBPU; format: in vivo; conditions: visual scoring after about 3 weeks vs untreated controls
# Text: b) Seeds of monocotyledonous and dicotyledonous weed plants and crop plants are placed in plastic or organic planting pots and covered with soil. The compounds of the invention, formulated in the form of wettable powders (WP) or as emulsion concentrates (EC), are then applied onto the surface of the covering soil as aqueous suspension or emulsion with addition of 0.5% additive at a water application rate of 600 l/ha (converted). After the treatment, the pots are placed in a greenhouse and kept under good growth conditions for the trial plants. After about 3 weeks, the effect of the preparations is scored visually in comparison with untreated controls as percentages. For example, 100% activity=the plants have died, 0% activity=like control plants. Tables 13 to 26 below show the effects of selected compounds of the general formula (I) on various harmful plants and at an application rate corresponding to 320 g/ha, which were obtained by the experimental procedure mentioned above.
# POLCO = assay: Pre-emergence action at 320 g/ha against POLCO; format: in vivo, Fallopia convolvulus (Polygonum convolvulus); conditions: visual scoring after about 3 weeks vs untreated controls
# Outline: as §2
# VERPE [19] = assay: Pre-emergence action at 320 g/ha against VERPE; format: in vivo, Veronica persica; conditions: visual scoring after about 3 weeks vs untreated controls
# Outline: as §2
# VIOTR = assay: Pre-emergence action at 320 g/ha against VIOTR; format: in vivo, Viola tricolor; conditions: dosage 320 g/ha
# Outline: as §2
# ALOMY [20] = assay: Post-emergence action against ALOMY, 1.28 kg/ha; format: in vivo, Alopecurus myosuroides; conditions: dosage 1280 g/ha, visual rating about 3 weeks after treatment vs untreated controls
# Outline: (§3)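 Foliar application at the one-leaf stage: compound as WP or EC in water with 0.5% additive, sprayed at 600 L/ha. Plants are kept about 3 weeks in the greenhouse, then % herbicidal action is estimated visually (100% = death).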
# DIGSA [21] = assay: Post-emergence action against DIGSA, 1.28 kg/ha; format: in vivo, Digitaria sanguinalis; conditions: dosage 1280 g/ha, visual rating about 3 weeks after treatment vs untreated controls
# Outline: as §3
# ECHCG [22] = assay: Post-emergence action against ECHCG, 1.28 kg/ha; format: in vivo, Echinochloa crus-galli; conditions: dosage 1280 g/ha, visual rating about 3 weeks after treatment vs untreated controls
# Outline: as §3
# LOLRI [23] = assay: Post-emergence action against LOLRI, 1.28 kg/ha; format: in vivo, Lolium rigidum; conditions: dosage 1280 g/ha, visual rating about 3 weeks after treatment vs untreated controls
# Outline: as §3
# POAAN [24] = assay: Post-emergence action against POAAN, 1.28 kg/ha; format: in vivo, Poa annua; conditions: dosage 1280 g/ha, visual rating about 3 weeks after treatment vs untreated controls
# Outline: as §3
# SETVI [25] = assay: Post-emergence action against SETVI, 1.28 kg/ha; format: in vivo, Setaria viridis; conditions: dosage 1280 g/ha, visual rating about 3 weeks after treatment vs untreated controls
# Outline: as §3
# ABUTH [26] = assay: Post-emergence action against ABUTH, 1.28 kg/ha; format: in vivo, Abutilon theophrasti; conditions: dosage 1280 g/ha, visual rating about 3 weeks after treatment vs untreated controls (100% = plants died)
# Outline: as §3
# AMARE [27] = assay: Post-emergence action against AMARE, 1.28 kg/ha; format: in vivo, Amaranthus retroflexus; conditions: dosage 1280 g/ha, visual rating about 3 weeks after treatment vs untreated controls (100% = plants died)
# Outline: as §3
# KCHSC [28] = assay: Post-emergence action against KCHSC, 1.28 kg/ha; format: in vivo, Bassia scoparia; conditions: dosage 1280 g/ha, visual rating about 3 weeks after treatment vs untreated controls (100% = plants died)
# Outline: as §3
# MATIN [29] = assay: Post-emergence action against MATIN, 1.28 kg/ha; format: in vivo, Tripleurospermum inodorum (Matricaria inodora); conditions: dosage 1280 g/ha, visual rating about 3 weeks after treatment vs untreated controls (100% = plants died)
# Outline: as §3
# STEME [30] = assay: Post-emergence action against STEME, 1.28 kg/ha; format: in vivo, Stellaria media; conditions: dosage 1280 g/ha, visual rating about 3 weeks after treatment vs untreated controls (100% = plants died)
# Outline: as §3
# VERPE [31] = assay: Post-emergence action against VERPE, 1.28 kg/ha; format: in vivo, Veronica persica; conditions: dosage 1280 g/ha, visual rating about 3 weeks after treatment vs untreated controls (100% = plants died)
# Outline: as §3
smiles,measurement,setting,value
O=C(COc1nn(-c2ccccc2F)c(-c2ccc(F)nc2)c1Br)O[C@H]1CCOC1=O [VII-064],Pre-emergence action against ALOMY,ALOMY [1],100%
same,Pre-emergence action against DIGSA,DIGSA [2],100%
same,Pre-emergence action against ECHCG,ECHCG [3],100%
same,Pre-emergence action against LOLRI,LOLRI [4],100%
same,Pre-emergence action against POAAN,POAAN [5],100%
same,Pre-emergence action against SETVI,SETVI [6],100%
same,Pre-emergence action against ABUTH,ABUTH [7],90%
same,Pre-emergence action against AMARE,AMARE [8],100%
same,Pre-emergence action against KCHSC,KCHSC [9],100% and 90%
same,Pre-emergence action against MATIN,MATIN [10],100%
same,Pre-emergence action against STEME,STEME [11],100%
same,Pre-emergence action against VERPE,VERPE [12],100%
same,Pre-emergence action at 320 g/ha against ALOMY in %,ALOMY [13],100%
same,Pre-emergence action against AVEFA in %,AVEFA,90%
same,Pre-emergence action against DIGSA in %,DIGSA [14],100%
same,Pre-emergence action against ECHGC in %,ECHGC,100% and 90%
same,Pre-emergence action against LOLRI in %,LOLRI [15],100%
same,Pre-emergence action against SETVI in %,SETVI [16],100%
same,Pre-emergence action against AMARE in %,AMARE [17],100%
same,Pre-emergence action against MATIN in %,MATIN [18],100%
same,Pre-emergence action against PHBPU in %,PHBPU,90%
same,Pre-emergence action against POLCO in %,POLCO,90%
same,Pre-emergence action against VERPE in %,VERPE [19],100%
same,Pre-emergence action against VIOTR in %,VIOTR,100%
same,Post-emergence action against ALOMY,ALOMY [20],100%
same,Post-emergence action against DIGSA,DIGSA [21],100%
same,Post-emergence action against ECHCG,ECHCG [22],100%
same,Post-emergence action against LOLRI,LOLRI [23],100% and 90%
same,Post-emergence action against POAAN,POAAN [24],100%
same,Post-emergence action against SETVI,SETVI [25],100% and 90%
same,Post-emergence action against ABUTH,ABUTH [26],90%
same,Post-emergence action against AMARE,AMARE [27],90% and 100%
same,Post-emergence action against KCHSC,KCHSC [28],90%
same,Post-emergence action against MATIN,MATIN [29],100% and 90%
same,Post-emergence action against STEME,STEME [30],100%
same,Post-emergence action against VERPE,VERPE [31],100%
